The nature of series [1]: Sensory evaluation of GSGs and SGs, thaumatin, NHDC and combinations (Ex. 255). The settings on record: combinations of EPCalin and NHDC dissolved in water. How it is done:
4.5 ppm Thaumatin (equivalent to 10 ppm EPCalin) was dissolved in water. Increasing amounts of NHDC (1-5 ppm) were added to the solution and the sensory properties were evaluated.
50 ppm (GSGs and SGs) were dissolved in water. Increasing amounts of NHDC (1-5 ppm) were added to the solution and the sensory properties were evaluated.
50 ppm (GSGs and SGs) and 4.5 ppm Thaumatin (equivalent to 10 ppm EPCalin) were dissolved in water. Increasing amounts of NHDC (1-5 ppm) were added to the solution and the sensory properties were evaluated.

For series [2] the following is noted: compared to sucrose; cited from earlier work.
For series [3] the following is noted: cited from earlier work; for times sweeter than sucrose: sweetness depends on the tested concentration compared with sucrose; for natural sweetness, times of that of sugar: constituents of monk fruit juice or extract; for Sweetness by weight: compared to sucrose.
Series [4] can be described thus: Kinetics of reaction in dependence of pH-conditions (degradation of Phe and Reb-A, Gluc, Xyl, Suc) by HPLC/MS. The procedure: Quantitative evaluation was performed using external standardization.
Kinetics of Reaction in Dependence of pH-Conditions

A short description of series [5]: Assay to test reducing power, active iron-III reduction (Ex. 64). The settings on record: 10 mM, 100° C., 0-5.0 h, diluted 1:10.
Series [6] is described as follows: DPPH radical-scavenging activity (Ex. 65). The conditions noted are these: 10 mM, 100° C., 0-5.0 h, diluted 1:10. How it is done:
1 mg 1,1-Diphenyl-2-picrylhydrazyl radical (DPPH)/ml ethanol, dilution to assay concentration were prepared in ethanol (40 μg/mL); Calibration samples were prepared with Ascorbic acid in a concentration of 0-10 μg/mL; as a negative control sample, water was used.
Samples in aqueous solution were used as such or diluted with water.
A 0.1 ml sample (or calibration standard) was mixed with 3.9 ml solution of DPPH
([…]) and reacted while protected from light at room temperature for 30 min. Absorbance was determined at 517 nm against ethanol.
10 mM of amino acid and/or 10 mM sugar were dissolved in 10 ml 0.1 mM KH2PO4-buffer, pH=7.8.
The samples were kept at 100° C. in sealed glass vials (Pyrex 15 ml with screw caps) for 0 (before reaction), 2.5 or 5.0 hours. Thereafter the samples were transferred to an ice water bath and cooled down to room temperature. These samples were diluted 1:10 and used for the test assay for anti-oxidant potential.
(In general: The DPPH test is a chemical assay of radical scavenging.)

Read-outs that look alike come from different tables or passages of the source.

In the case of `COc1ccc(CCC(=O)c2c(O)cc(O[C@@H]3O[C@H](CO)[C@@H](O)[C@H](O)[C@H]3O[C@@H]3O[C@@H](C)[C@H](O)[C@@H](O)[C@H]3O)cc2O)cc1O` [10 ppm NHDC], the Sensory evaluation entry in series [1] is “Sweet, steep onset of sweetness, no lingering”.

Consider `OC[C@@H](O)[C@@H](O)CO` [Erythritol], for which, in series [2], the Energy density is recorded as 0.05.

With `OCC(O)CO` [Glycerol], the Energy density in series [2] was 1.075.

Consider `CC1(C)[C@@H](O[C@H]2O[C@H](C(=O)O)[C@@H](O)[C@H](O)[C@H]2O[C@@H]2O[C@H](C(=O)O)[C@@H](O)[C@H](O)[C@H]2O)CC[C@]2(C)[C@H]3C(=O)C=C4[C@@H]5C[C@@](C)(C(=O)O)CC[C@]5(C)CC[C@@]4(C)[C@]3(C)CC[C@@H]12` [Glycyrrhizin], for which the “times sweeter than sucrose” value in series [3] is 30 to 50 times.

For the molecule `OC[C@@H](O)[C@@H](O[C@@H]1O[C@H](CO)[C@H](O)[C@H](O)[C@H]1O)[C@H](O)[C@@H](O)CO` [Lactitol], the Energy density in series [2] is on record as 0.5.

Regarding `O=C(O)[C@H](Cc1ccccc1)NCC(=O)[C@@H](O)[C@H](O)[C@H](O)CO` [MRI (Phe-Glu)], the “% formation from degraded Phe” value is less than 0.10% in series [4] (reaction of Phe and Suc, pH = 5.5, n.d. = not detected); 0.54% in series [4] (reaction of Phe and Suc, pH = 7.0, n.d. = not detected); 0.84% in series [4] (reaction of Phe and Suc, pH = 8.5, n.d. = not detected).

For `C=C1CC23CC[C@H]4[C@@](C)(CCC[C@@]4(C)C(=O)OC4O[C@H](C(=O)N[C@H](Cc5ccccc5)C(=O)O)[C@@H](O)[C@H](O)[C@H]4O)[C@@H]2CC(O[C@@H]2O[C@H](CO)[C@@H](O)C(O[C@@H]4O[C@H](CO)[C@@H](O)[C@H](O)[C@H]4O)[C@H]2O[C@@H]2O[C@H](CO)[C@@H](O)[C@H](O)[C@H]2O)C1C3` (stereo partly drawn) [MRI (Phe-Reb-A)], the “% formation from degraded Phe” value in series [4] (reaction of Phe and Reb-A, pH = 5.5, MRI (Phe-Reb-A): all possible isomers included) is 10.4%; in series [4] (reaction of Phe and Reb-A, pH = 7.0, MRI (Phe-Reb-A): all possible isomers included), 11.3%; in series [4] (reaction of Phe and Reb-A, pH = 8.5, MRI (Phe-Reb-A): all possible isomers included) it was 14.7%.

Consider `OC[C@@H](O)[C@@H](O[C@H]1O[C@H](CO)[C@@H](O)[C@H](O)[C@H]1O)[C@H](O)[C@@H](O)CO` [Maltitol], for which the Energy density in series [2] was 0.525.

For `OC[C@@H](O)[C@@H](O)[C@H](O)[C@H](O)CO` [Mannitol], the Energy density in series [2] is listed as 0.4. Besides, in series [3], the “natural sweetness, times of that of sugar” value (shortened to “natural sweetness, times”) is 0.55-0.65 times.

With `COc1ccc(CCC(=O)c2c(O)cc(O[C@@H]3O[C@H](CO)[C@@H](O)[C@H](O)[C@H]3O[C@@H]3O[C@@H](C)[C@H](O)[C@@H](O)[C@H]3O)cc2O)cc1O` [NHDC, Neohesperidin dihydrochalcone], the “times sweeter than sugar” value in series [3] (at threshold concentrations) is 1500-1800 times; in series [3] (weight-for-weight) it was “about 340 times”.

Regarding `C=C1C[C@@]23CC[C@H]4[C@@](C)(CCC[C@@]4(C)C(=O)O[C@@H]4O[C@H](CO)[C@@H](O)[C@H](O)[C@H]4O)[C@@H]2CC[C@]1(O[C@@H]1O[C@H](CO)[C@@H](O)[C@H](O[C@@H]2O[C@H](CO)[C@@H](O)[C@H](O)[C@H]2O)[C@H]1O[C@@H]1O[C@H](CO)[C@@H](O)[C@H](O)[C@H]1O)C3` [Reb-A, Rebaudioside A], in series [5], the “anti-oxidant properties (active iron-III reduction)” value is listed as “substantial anti-oxidant properties”. Moreover, the “anti-oxidant properties (radical scavenging)” value in series [6] is “substantial anti-oxidant properties”.

In the case of `OC[C@@H](O)[C@@H](O)[C@H](O)[C@@H](O)CO` [Sorbitol], the Energy density in series [2] was 0.65.

With `O=C(CO)[C@@H](O)[C@@H](O)[C@H](O)CO` [Tagatose], in series [2], the Energy density is 0.38.

Turning to `C[C@H](CC[C@@H](O[C@@H]1O[C@H](CO)[C@@H](O)[C@H](O)[C@H]1O[C@@H]1O[C@H](CO)[C@@H](O)[C@H](O)[C@H]1O)C(C)(C)O)[C@H]1CC[C@@]2(C)[C@H]3CC=C4[C@@H](CC[C@H](O[C@@H]5O[C@H](CO[C@@H]6O[C@H](CO)[C@@H](O)[C@H](O)[C@H]6O)[C@@H](O)[C@H](O)[C@H]5O)C4(C)C)[C@]3(C)[C@H](O)C[C@]12C` [mogroside IV], the “natural sweetness, times” value in series [3] is 126 times.

Regarding `C[C@H](CC[C@@H](O[C@@H]1O[C@H](CO[C@@H]2O[C@H](CO)[C@@H](O)[C@H](O)[C@H]2O)[C@@H](O)[C@H](O)[C@H]1O[C@@H]1O[C@H](CO)[C@@H](O)[C@H](O)[C@H]1O)C(C)(C)O)[C@H]1CC[C@@]2(C)[C@@H]3CC=C4[C@@H](CC[C@H](O[C@@H]5O[C@H](CO[C@@H]6O[C@H](CO)[C@@H](O)[C@H](O)[C@H]6O)[C@@H](O)[C@H](O)[C@H]5O)C4(C)C)[C@]3(C)[C@H](O)C[C@]12C` [mogroside V], in series [3], the “natural sweetness, times” value is on record as 256-344 times.

For the molecule `O=S(=O)([O-])NC1CCCCC1.[Na+]` [sodium cyclamate], in series [3], the “times sweeter than sucrose” value is “about 30 times”.

Consider `OC[C@H]1O[C@H](O[C@]2(CCl)O[C@H](CCl)[C@@H](O)[C@@H]2O)[C@H](O)[C@@H](O)[C@H]1Cl` [sucralose], for which, in series [3], the “times sweeter than sucrose” value is given as “about 600 times”.

Turning to Fructo-oligosaccharide, the Sweetness by weight in series [3] is recorded as 0.3-0.5.

Consider Isomalt, for which the Energy density in series [2] is reported as 0.5.

As to Isomalto-oligosaccharide, the Sweetness by weight in series [3] is reported as 0.5.

For rebaudioside B [Reb B], the “% formation from degraded Reb-A” value in series [4] (reaction of Phe and Reb-A, pH = 5.5) was determined as 23.1%; in series [4] (reaction of Phe and Reb-A, pH = 7.0) it was 22.7%; in series [4] (reaction of Phe and Reb-A, pH = 8.5), 19.1%.

These data come from patent US20200367543A1, “SWEETENER AND FLAVOR COMPOSITIONS, METHODS OF MAKING AND METHODS OF USE THEREOF” (EPC Natural Products Co., Ltd., priority 2018, published 2020).
